Laboratory results taken from the supplement of paper PMC8960247.
Where a name gives a salt, the structure may show the parent alone. ± gives the standard error.

Test system: 621-103 (TSC2-rescued)
Assay: relative viability vs DMSO; higher = less cytotoxic
Conditions: 0.0001 µM; serum: 10% FBS; 72 h
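Also: immortalized renal angiomyolipoma cells stably carrying empty vector or TSC2, dosed in 384-well plates in DMEM, viability normalized to vehicle-treated wells within each plate.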

Compound | relative viability
C[C@]12C=CC(=O)N[C@@H]1CC[C@@H]1[C@@H]2CC[C@]2(C)[C@@H](C(=O)Nc3cc(C(F)(F)F)ccc3C(F)(F)F)CC[C@@H]12 [Dutasteride (Avodart)] | 104 ± 1.4%
Cc1cc(Nc2cc(N3CCN(C)CC3)nc(/C=C/c3ccccc3)n2)n[nH]1 [ENMD-2076] | 100.4 ± 0.78%
COc1cc2c(cc1Cc1cccc(Cl)c1F)c(=O)c(C(=O)O)cn2[C@H](CO)C(C)C [Elvitegravir] | 101 ± 1.1%
Nc1nc(=O)n([C@@H]2CS[C@H](CO)O2)cc1F [Emtricitabine] | 106 ± 1.1%
CCOC(=O)[C@H](CCc1ccccc1)N[C@@H](C)C(=O)N1CCC[C@H]1C(=O)O [Enalapril Maleate] | 99 ± 1.8%
C[C@H](N[C@@H](CCc1ccccc1)C(=O)O)C(=O)N1CCC[C@H]1C(=O)O [Enalaprilat] | 101 ± 4%
Cn1cc(C2=C(c3cn(C4CCN(Cc5ccccn5)CC4)c4ccccc34)C(=O)NC2=O)c2ccccc21 [Enzastaurin] | 104.1 ± 0.6%
CNC[C@H](O)c1ccc(O)c(O)c1 [Epinephrine bitartrate] | 102 ± 2.1%
C/C(=C\c1csc(C)n1)[C@@H]1C[C@@H]2O[C@@H]2CCC[C@H](C)[C@H](O)[C@@H](C)C(=O)C(C)(C)[C@@H](O)CC(=O)O1 [Epothilone A] | 87.3 ± 1.9%
C/C(=C\c1csc(C)n1)[C@@H]1C[C@@H]2O[C@]2(C)CCC[C@H](C)[C@H](O)[C@@H](C)C(=O)C(C)(C)[C@@H](O)CC(=O)O1 [Epothilone B (EPIO906)] | 56.73 ± 0.32%
C#Cc1cccc(Nc2ncnc3cc(OCCOC)c(OCCOC)cc23)c1 [Erlotinib] | 99.81 ± 0.92%
COc1ccc2[nH]c([S@@+]([O-])Cc3ncc(C)c(OC)c3C)nc2c1 [Esomeprazole sodium (Nexium I.V.)] | 111 ± 0.41%
COc1cc([C@@H]2c3cc4c(cc3[C@@H](O[C@@H]3O[C@@H]5CO[C@@H](C)O[C@H]5[C@H](O)[C@H]3O)[C@H]3COC(=O)[C@H]23)OCO4)cc(OC)c1O [Etoposide (Etopophos)] | 99.77 ± 0.28%

Same assay, conditions: 0.001 µM; serum: 10% FBS; 72 h

Compound | relative viability
C[C@]12C=CC(=O)N[C@@H]1CC[C@@H]1[C@@H]2CC[C@]2(C)[C@@H](C(=O)Nc3cc(C(F)(F)F)ccc3C(F)(F)F)CC[C@@H]12 [Dutasteride (Avodart)] | 105 ± 2.2%
Cc1cc(Nc2cc(N3CCN(C)CC3)nc(/C=C/c3ccccc3)n2)n[nH]1 [ENMD-2076] | 100.9 ± 0.97%
COc1cc2c(cc1Cc1cccc(Cl)c1F)c(=O)c(C(=O)O)cn2[C@H](CO)C(C)C [Elvitegravir] | 102 ± 1.9%
Nc1nc(=O)n([C@@H]2CS[C@H](CO)O2)cc1F [Emtricitabine] | 110 ± 6.2%
CCOC(=O)[C@H](CCc1ccccc1)N[C@@H](C)C(=O)N1CCC[C@H]1C(=O)O [Enalapril Maleate] | 100 ± 2.9%
C[C@H](N[C@@H](CCc1ccccc1)C(=O)O)C(=O)N1CCC[C@H]1C(=O)O [Enalaprilat] | 101.1 ± 0.31%
Cn1cc(C2=C(c3cn(C4CCN(Cc5ccccn5)CC4)c4ccccc34)C(=O)NC2=O)c2ccccc21 [Enzastaurin] | 99.64 ± 0.22%
CNC[C@H](O)c1ccc(O)c(O)c1 [Epinephrine bitartrate] | 95.4 ± 4.3%
C/C(=C\c1csc(C)n1)[C@@H]1C[C@@H]2O[C@@H]2CCC[C@H](C)[C@H](O)[C@@H](C)C(=O)C(C)(C)[C@@H](O)CC(=O)O1 [Epothilone A] | 59.1 ± 2.4%
C/C(=C\c1csc(C)n1)[C@@H]1C[C@@H]2O[C@]2(C)CCC[C@H](C)[C@H](O)[C@@H](C)C(=O)C(C)(C)[C@@H](O)CC(=O)O1 [Epothilone B (EPIO906)] | 48.3 ± 0.41%
C#Cc1cccc(Nc2ncnc3cc(OCCOC)c(OCCOC)cc23)c1 [Erlotinib] | 101 ± 1.1%
COc1ccc2[nH]c([S@@+]([O-])Cc3ncc(C)c(OC)c3C)nc2c1 [Esomeprazole sodium (Nexium I.V.)] | 99.3 ± 0.93%
COc1cc([C@@H]2c3cc4c(cc3[C@@H](O[C@@H]3O[C@@H]5CO[C@@H](C)O[C@H]5[C@H](O)[C@H]3O)[C@H]3COC(=O)[C@H]23)OCO4)cc(OC)c1O [Etoposide (Etopophos)] | 98.19 ± 0.16%

Same assay, conditions: 0.01 µM; serum: 10% FBS; 72 h

Compound | relative viability
C[C@]12C=CC(=O)N[C@@H]1CC[C@@H]1[C@@H]2CC[C@]2(C)[C@@H](C(=O)Nc3cc(C(F)(F)F)ccc3C(F)(F)F)CC[C@@H]12 [Dutasteride (Avodart)] | 100.7 ± 0.37%
Cc1cc(Nc2cc(N3CCN(C)CC3)nc(/C=C/c3ccccc3)n2)n[nH]1 [ENMD-2076] | 104 ± 1.5%
COc1cc2c(cc1Cc1cccc(Cl)c1F)c(=O)c(C(=O)O)cn2[C@H](CO)C(C)C [Elvitegravir] | 98.96 ± 0.48%
Nc1nc(=O)n([C@@H]2CS[C@H](CO)O2)cc1F [Emtricitabine] | 101 ± 4.7%
CCOC(=O)[C@H](CCc1ccccc1)N[C@@H](C)C(=O)N1CCC[C@H]1C(=O)O [Enalapril Maleate] | 89.7 ± 10%
C[C@H](N[C@@H](CCc1ccccc1)C(=O)O)C(=O)N1CCC[C@H]1C(=O)O [Enalaprilat] | 95.29 ± 0.25%
Cn1cc(C2=C(c3cn(C4CCN(Cc5ccccn5)CC4)c4ccccc34)C(=O)NC2=O)c2ccccc21 [Enzastaurin] | 102 ± 1.3%
CNC[C@H](O)c1ccc(O)c(O)c1 [Epinephrine bitartrate] | 93.4 ± 4.4%
C/C(=C\c1csc(C)n1)[C@@H]1C[C@@H]2O[C@@H]2CCC[C@H](C)[C@H](O)[C@@H](C)C(=O)C(C)(C)[C@@H](O)CC(=O)O1 [Epothilone A] | 44 ± 1.4%
C/C(=C\c1csc(C)n1)[C@@H]1C[C@@H]2O[C@]2(C)CCC[C@H](C)[C@H](O)[C@@H](C)C(=O)C(C)(C)[C@@H](O)CC(=O)O1 [Epothilone B (EPIO906)] | 38.2 ± 1%
C#Cc1cccc(Nc2ncnc3cc(OCCOC)c(OCCOC)cc23)c1 [Erlotinib] | 104 ± 2.2%
COc1ccc2[nH]c([S@@+]([O-])Cc3ncc(C)c(OC)c3C)nc2c1 [Esomeprazole sodium (Nexium I.V.)] | 101.7 ± 0.45%
COc1cc([C@@H]2c3cc4c(cc3[C@@H](O[C@@H]3O[C@@H]5CO[C@@H](C)O[C@H]5[C@H](O)[C@H]3O)[C@H]3COC(=O)[C@H]23)OCO4)cc(OC)c1O [Etoposide (Etopophos)] | 99.6 ± 1.2%
